# Where a SMILES comes first, the peptide text is derived from it. Bridges are numbered along the chain shown (N, C = ends). Roman numbers before positions name the chains, in order. [ ]: non-standard residue; d: D form. The star is where a group is joined. Thr(ol) = C[C@@H](O)[C@H](N)CO; Tle = CC(C)(C)[C@H](N)C(=O)O; Hiv = CC(C)[C@H](O)C(=O)O; dDab = NCC[C@@H](N)C(=O)O; hSer = N[C@@H](CCO)C(=O)O; NHCH(CH2OH)2 = OCC(CO)N*; Orn = NCCC[C@H](N)C(=O)O; Dab = NCC[C@H](N)C(=O)O; Dap = NC[C@H](N)C(=O)O
# Legend:
# Format in all cases: cell-based
# [1] = system: human red blood cells (hRBC); assay: Hemolysis; settings: red cells of human, 1 h, 200
# How it was run: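 Washed fresh human RBC (20% v/v) incubated with peptide at 200 μg/mL for 1 h at 37° C with shaking. Supernatant OD540 measured after dilution, blank corrected; percent hemolysis = OD540 peptide / OD540 of 2% Triton X-100 lysis × 100, PBS with 10% water as 0%.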
# [2] = system: Pseudomonas aeruginosa ATCC 27853; settings: ATCC 27853
# Procedure: (§1) The in vitro antimicrobial activities of the peptides were determined in 96-well plates (Greiner, polystyrene) by the standard CLSI broth microdilution method (Clinical and Laboratory Standards Institute 2014. Performance standards for antimicrobial susceptibility testing, 24th informational supplement. Approved standard CLSI M100-S24; Clinical and Laboratory Standards Institute, Wayne, Pa.). The following microorganisms were used to determine antibiotic activity of the peptides: Escherichia coli ATCC 25922, Klebsiella pneumoniae SSI #3010^a), Acinetobacter baumannii DSM 30008, Pseudomonas aeruginosa ATCC 27853 and the clinical isolates Escherichia coli 926415^b), Klebsiella pneumoniae 968733^b), Acinetobacter baumannii 872842^b), Enterobacter cloacae 848840^b) and Escherichia coli MCR-1 Af45^c). Before preparation of inocula, Escherichia coli MCR-1 Af45 was subcultured on Mueller-Hinton II (MH-cation adjusted) agar containing 2 μg/mL colistin. ^a) Obtained from Statens Serum Institut (SSI), Copenhagen, Denmark^b) Obtained from International Health Management Associates, Inc. (IHMA Europe Sàrl), Epalinges, Switzerland^c) Obtained from Prof. Patrice Nordmann, University of Fribourg, Fribourg, Switzerland
# (§2) Inocula of the microorganisms were diluted into Mueller-Hinton II (MH-cation adjusted) broth and compared with a 0.5 McFarland standard to give appr. 10^6 colony forming units (CFU)/mL. Aliquots (90 μL) of inoculum were added to 10 μL of MH-II broth+P-80 (Polysorbate 80, 0.002% final concentration, v/v) containing the peptide in serial two-fold dilutions. Antimicrobial activities of the peptides were expressed as the minimal inhibitory concentration (MIC) in μg/mL at which no visible growth was observed after 18-20 hours of incubation at 35° C.
# [3] = system: Enterobacter cloacae 848840; settings: 848840
# Procedure: as §1, §2
# [4] = system: Acinetobacter baumannii DSM 30008; settings: DSM 30008
# Procedure: as §1, §2
# [5] = system: Klebsiella pneumoniae 968733; settings: 968733
# Procedure: as §1, §2
# [6] = system: Klebsiella pneumoniae SSI #3010; settings: SSI #3010
# Procedure: as §1, §2
# [7] = system: Escherichia coli 926415; settings: 926415
# Procedure: as §1, §2
# [8] = system: Acinetobacter baumannii 872842; settings: 872842
# Procedure: as §1, §2
# [9] = system: Escherichia coli ATCC 25922; settings: ATCC 25922
# Procedure: as §1, §2
MIC [2] [µg/mL],MIC [3] [µg/mL],MIC [4] [µg/mL],MIC [5] [µg/mL],MIC [6] [µg/mL],MIC [7] [µg/mL],MIC [8] [µg/mL],MIC [9] [µg/mL],Pseudomonas aeruginosa ATCC 27853 MIC [2] [µg/mL],Acinetobacter baumannii DSM 30008 MIC [4] [µg/mL],Klebsiella pneumoniae SSI #3010 MIC [6] [µg/mL],Escherichia coli ATCC 25922 MIC [9] [µg/mL],SMILES,Hemolysis at 200 μg/mL [1] [%]
0.125,0.125,0.0625,0.125,0.0625,0.0625,0.0625,0.0625,,,,,CC(C)C[C@@H]1NC(=O)[C@@H](CC(C)C)NC(=O)[C@H](CCN)NC(=O)[C@@H](NC(=O)[C@H](CN)NC(=O)[C@@H](NC(=O)[C@H](CCN)NC(=O)CC[C@@H]2NC(=O)[C@H](CN)NC(=O)[C@H](Cc3ccc(O)cc3)NC(=O)[C@@H](NC(=O)[C@@H](O)C(C)C)CSSC[C@@H](C(=O)N[C@H](CO)[C@@H](C)O)NC(=O)[C@H](C(C)(C)C)NC(=O)[C@H](CO)NC(=O)[C@H](Cc3c[nH]c4ccccc34)NC(=O)[C@H](CCO)NC(=O)[C@@H](CCN)NC2=O)[C@@H](C)O)CCNC(=O)[C@H]([C@@H](C)O)NC(=O)[C@H](CCN)NC(=O)[C@H](CCN)NC1=O [Ex. 112] (I: H-[Hiv]CY[Dap]E[dDab][hSer]WS[Tle]C[Thr(ol)] / II: [Dab]T[Dap][Dab][Dab][dL]L[Dab][Dab]T; disulfide I:2-I:11; amide I:5-II:N; lactam II:4-II:C),<1
,4,,1,,0.5,0.5,,0.125,0.25,0.125,0.125,CC(=O)N[C@H](C(=O)N[C@H]1CSSC[C@@H](C(=O)N[C@@H](CO)C(N)=O)NC(=O)[C@H](C(C)C)NC(=O)[C@H](CO)NC(=O)[C@H](Cc2c[nH]c3ccccc23)NC(=O)[C@H](CO)NC(=O)[C@@H](CCN)NC(=O)[C@H](CCC(=O)N[C@@H](CCN)C(=O)NCC(=O)N[C@@H](CN)C(=O)N[C@H]2CCNC(=O)[C@H]([C@@H](C)O)NC(=O)[C@H](CCN)NC(=O)[C@H](CCN)NC(=O)[C@H](CC(C)C)NC(=O)[C@@H](CC(C)C)NC(=O)[C@H](CCN)NC2=O)NC(=O)[C@H](CCN)NC(=O)[C@H](Cc2ccc(O)cc2)NC1=O)C(C)C [Ex. 307] (I: Ac-VCY[Dab]E[dDab]SWSVCS-NH2 / II: [Dab]G[Dap][Dab][Dab][dL]L[Dab][Dab]T; disulfide I:2-I:11; amide I:5-II:N; lactam II:4-II:C),<1
0.125,0.125,0.0625,0.5,0.125,0.25,0.125,0.0625,,,,,"CC(=O)N[C@H](C(=O)N[C@H]1CCNC(=O)C[C@@H](C(=O)N[C@@H](CO)C(N)=O)NC(=O)[C@H](C(C)C)NC(=O)[C@H](CO)NC(=O)[C@H](Cc2c[nH]c3ccccc23)NC(=O)[C@H](CO)NC(=O)[C@@H](CCN)NC(=O)[C@H](CCC(=O)N[C@@H](CCN)C(=O)N[C@H](C(=O)N[C@@H](CN)C(=O)N[C@H]2CCNC(=O)[C@H]([C@@H](C)O)NC(=O)[C@H](CCN)NC(=O)[C@H](CCN)NC(=O)[C@H](CC(C)C)NC(=O)[C@@H](CC(C)C)NC(=O)[C@H](CCN)NC2=O)[C@@H](C)O)NC(=O)[C@H](CN)NC(=O)[C@H](Cc2ccc(O)cc2)NC1=O)C(C)C [Ex. 149] (I: Ac-V[Dab]Y[Dap]E[dDab]SWSVDS-NH2 / II: [Dab]T[Dap][Dab][Dab][dL]L[Dab][Dab]T; lactam I:2-I:11, II:4-II:C; amide I:5-II:N)",<1
0.25,2,0.25,4,0.25,2,2,0.125,,,,,CC(=O)N[C@@H](Cc1ccc(O)cc1)C(=O)N[C@H]1CSSC[C@@H](C(=O)NC(CO)CO)NC(=O)[C@H](Cc2c[nH]c3ccccc23)NC(=O)[C@H](CO)NC(=O)[C@H](C(C)C)NC(=O)[C@H](CCO)NC(=O)[C@@H](CCN)NC(=O)[C@H](CCC(=O)N[C@@H](CCN)C(=O)N[C@H](C(=O)N[C@@H](CCN)C(=O)N[C@H]2CCNC(=O)[C@H]([C@@H](C)O)NC(=O)[C@H](CCN)NC(=O)[C@H](CCN)NC(=O)[C@H](CC(C)C)NC(=O)[C@@H](CC(C)C)NC(=O)[C@H](CCN)NC2=O)[C@@H](C)O)NC(=O)[C@H](CCN)NC(=O)[C@H](C(C)C)NC1=O [Ex. 98] (I: Ac-YCV[Dab]E[dDab][hSer]VSWC-{NHCH(CH2OH)2} / II: [Dab]T[Dab][Dab][Dab][dL]L[Dab][Dab]T; disulfide I:2-I:11; amide I:5-II:N; lactam II:4-II:C),<1
0.25,0.125,0.0625,0.25,0.125,0.125,0.0625,0.0625,,,,,"CC(=O)N[C@@H](CC(C)C)C(=O)N[C@H]1CCCNC(=O)[C@@H]([C@H](C)O)NC(=O)[C@H](C(C)(C)C)NC(=O)[C@H](CO)NC(=O)[C@H](Cc2c[nH]c3ccccc23)NC(=O)[C@H](CCO)NC(=O)[C@@H](CCN)NC(=O)[C@H](CCC(=O)N[C@@H](CCN)C(=O)N[C@H](C(=O)N[C@@H](CN)C(=O)N[C@H]2CCNC(=O)[C@H]([C@@H](C)O)NC(=O)[C@H](CCN)NC(=O)[C@H](CCN)NC(=O)[C@H](CC(C)C)NC(=O)[C@@H](CC(C)C)NC(=O)[C@H](CCN)NC2=O)[C@@H](C)O)NC(=O)[C@H](CN)NC(=O)[C@H](Cc2ccc(O)cc2)NC1=O [Ex. 33] (I: Ac-L[Orn]Y[Dap]E[dDab][hSer]WS[Tle][dT] / II: [Dab]T[Dap][Dab][Dab][dL]L[Dab][Dab]T; lactam I:2-I:C, II:4-II:C; amide I:5-II:N)",<1
0.125,0.125,0.0625,0.5,0.125,0.25,0.25,0.0625,,,,,CC(=O)N[C@H](C(=O)N[C@H]1CSSC[C@@H](C(=O)N[C@@H](CO)C(N)=O)NC(=O)[C@H](C(C)(C)C)NC(=O)[C@H](CCC(=O)O)NC(=O)[C@H](Cc2c[nH]c3ccccc23)NC(=O)[C@H](CCO)NC(=O)[C@@H](CCN)NC(=O)[C@H](CCC(=O)N[C@@H](CCN)C(=O)N[C@H](C(=O)N[C@@H](CN)C(=O)N[C@H]2CCNC(=O)[C@H]([C@@H](C)O)NC(=O)[C@H](CCN)NC(=O)[C@H](CCN)NC(=O)[C@H](CC(C)C)NC(=O)[C@@H](CC(C)C)NC(=O)[C@H](CCN)NC2=O)[C@@H](C)O)NC(=O)[C@H](CCCCN)NC(=O)[C@H](Cc2ccc(O)cc2)NC1=O)C(C)C [Ex. 159] (I: Ac-VCYKE[dDab][hSer]WE[Tle]CS-NH2 / II: [Dab]T[Dap][Dab][Dab][dL]L[Dab][Dab]T; disulfide I:2-I:11; amide I:5-II:N; lactam II:4-II:C),<1
